Laboratory results reported in patent US8163740B2, “6-substituted benzoxazines” (Hoffmann-La Roche Inc., priority 2008, dated 2012).

Biological target: recombinant human 5-HT5A receptor (Homo sapiens, UniProt P47898)
Assay: [3H]LSD radioligand binding assay
Settings: not given
Description: A [^3H]LSD radioligand binding assay was used to determine the affinity of the compounds for the recombinant human 5-HT5A receptor, in membranes from transiently (cDNA) expressed 5-HT5A receptors in Human Embryonic Kidney-EBNA (HEK-EBNA) cells. Assay buffer consisted of Tris (50 mM) buffer containing 1 mM EGTA, 10 mM MgCl2 (pH 7.4) and 10 μM pargyline. The binding assay was carried out in 96-well-plates in the presence of [^3H]LSD (approximately 1 nM), approximately 2 μg/well of membrane protein, and 0.5 mg of Ysi-poly-1-lysine SPA beads in a final volume of 200 μl of buffer. Non-specific binding was defined using methiothepin 2 μM. Compounds were tested at 10 concentrations. All assays were conducted in duplicate and repeated at least two times. Assay plates were incubated for 120 min at room temperature before centrifugation. Bound ligand was determined using a Packard Topcount scintillation counter. IC50 values were calculated using a non-linear curve fitting program and Ki values calculated using the Cheng-Prussoff equation.

Sequence of recombinant human 5-HT5A receptor (P47898 whole entry): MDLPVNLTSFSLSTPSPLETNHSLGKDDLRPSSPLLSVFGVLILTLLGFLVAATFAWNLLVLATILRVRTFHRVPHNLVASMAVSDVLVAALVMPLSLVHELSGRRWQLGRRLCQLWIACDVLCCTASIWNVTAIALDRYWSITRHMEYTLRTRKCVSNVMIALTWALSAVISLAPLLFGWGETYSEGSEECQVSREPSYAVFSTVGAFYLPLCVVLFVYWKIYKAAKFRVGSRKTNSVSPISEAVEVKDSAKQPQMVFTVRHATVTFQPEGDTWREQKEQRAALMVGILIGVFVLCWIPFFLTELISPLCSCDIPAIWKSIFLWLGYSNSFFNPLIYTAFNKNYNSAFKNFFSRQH

| SMILES | Ki |
| --- | --- |
| CN1C2COCC1CC(CC(=O)Nc1ccc3c(c1)COC(NC1CCc4ccccc41)=N3)C2 [Example 157, endo-N-[2-((R)-indan-1-ylamino)-4H-benzo[d][1,3]oxazin-6-yl]-2-(9-methyl-3-oxa-9-aza-bicyclo[3.3.1]non-7-yl)-acetamide] | 2.98 nM |

Same assay, conditions: [3H]LSD (approximately 1 nM); membranes from HEK-EBNA cells transiently expressing 5-HT5A; Ki by Cheng-Prussoff equation; read-out: Ki

| SMILES | Ki |
| --- | --- |
| CC1(C)Cc2cccc(NC3=Nc4ccc(NCc5ncc[nH]5)cc4CO3)c2O1 [Example 131, N^2-(2,2-Dimethyl-2,3-dihydro-benzofuran-7-yl)-N^6-(1H-imidazol-2-ylmethyl)-4H-benzo[d][1,3]oxazine-2,6-diamine] | 17.9 nM |
| O=C(Nc1ccc2c(c1)COC(NC1CCCCCC1)=N2)C1CC1 [Example 95, Cyclopropanecarboxylic acid (2-cycloheptylamino-4H-benzo[d][1,3]oxazin-6-yl)-amide] | 5.53 nM |
| NCc1ccc2c(c1)COC(N[C@@H]1CCc3ccccc31)=N2 [Example 129, (6-Aminomethyl-4H-benzo[d][1,3]oxazin-2-yl)-(R)-indan-1-yl-amine] | 13.3 nM |
| O=C(NCc1ccc2c(c1)COC(N[C@@H]1CCc3ccccc31)=N2)c1ccc(F)cc1 [Example 132, 4-Fluoro-N-[2-((R)-indan-1-ylamino)-4H-benzo[d][1,3]oxazin-6-ylmethyl]-benzamide] | 48 nM |
| c1ccc2c(c1)CC[C@H]2NC1=Nc2ccc(NCc3nccs3)cc2CO1 [Example 89, N^2—(R)-Indan-1-yl-N^6-thiazol-2-ylmethyl-4H-benzo[d][1,3]oxazine-2,6-diamine] | 1.18 nM |
| O=C(CN1CCS(=O)(=O)CC1)Nc1ccc2c(c1)COC(N[C@@H]1CCc3ccccc31)=N2 [Example 66, 2-(1,1-Dioxo-1λ^6-thiomorpholin-4-yl)-N-[2-((R)-indan-1-ylamino)-4H-benzo[d][1,3]oxazin-6-yl]-acetamide] | 16 nM |
| COc1cccc2c1C(NC1=Nc3ccc(NS(=O)(=O)N4CCOCC4)cc3CO1)CC2 (racemic) [Example 63, rac-Morpholine-4-sulfonic acid [2-(7-methoxy-indan-1-ylamino)-4H-benzo[d][1,3]oxazin-6-yl]-amide] | 3.32 nM |
| COc1ccccc1CNC1=Nc2ccc(NC(=O)CN3CCN(C(C)C)CC3)cc2CO1 [Example 29, 2-(4-Isopropyl-piperazin-1-yl)-N-[2-(2-methoxy-benzylamino)-4H-benzo[d][1,3]oxazin-6-yl]-acetamide] | 10.9 nM |
| O=S(=O)(Nc1ccc2c(c1)COC(NC1CCCCCC1)=N2)C1CC1 [Example 97, Cyclopropanesulfonic acid (2-cycloheptylamino-4H-benzo[d][1,3]oxazin-6-yl)-amide] | 38.6 nM |
| CN1CCN(CC(=O)Nc2ccc3c(c2)COC(NCCOc2ccccc2)=N3)CC1 [Example 122, 2-(4-Methyl-piperazin-1-yl)-N-[2-(2-phenoxy-ethylamino)-4H-benzo[d][1,3]oxazin-6-yl]-acetamide] | 5.11 nM |
| c1cncc(CNc2ccc3c(c2)COC(N[C@@H]2CCc4ccccc42)=N3)c1 [Example 88, N^2—(R)-Indan-1-yl-N^6-pyridin-3-ylmethyl-4H-benzo[d][1,3]oxazine-2,6-diamine] | 1.68 nM |
| COc1cccc2c1C(NC1=Nc3ccc(NC(=O)NC(C)C)cc3CO1)CO2 (racemic) [Example 16, rac-1-Isopropyl-3-[2-(4-methoxy-2,3-dihydro-benzofuran-3-ylamino)-4H-benzo[d][1,3]oxazin-6-yl]-urea] | 2.93 nM |
| Nc1ccc2c(c1)COC(NC1CCCCCC1)=N2 [Example 92, N^2-Cycloheptyl-4H-benzo[d][1,3]oxazine-2,6-diamine] | 16.7 nM |
| COc1cccc2c1C(NC1=Nc3ccc(NC(C)=O)cc3CO1)CO2 (racemic) [Example 51, rac-N-[2-(4-Methoxy-2,3-dihydro-benzofuran-3-ylamino)-4H-benzo[d][1,3]oxazin-6-yl]-acetamide] | 23.7 nM |
| Fc1ccc2c(c1)CCC2NC1=Nc2ccc(Nc3cccc(C(F)(F)F)n3)cc2CO1 (racemic) [Example 57, rac-N^2-(5-Fluoro-indan-1-yl)-N^6-(6-trifluoromethyl-pyridin-2-yl)-4H-benzo[d][1,3]oxazine-2,6-diamine] | 6.06 nM |
| COc1cccc2c1C(NC1=Nc3ccc(Nc4nnn(C(C)(C)C)n4)cc3CO1)CC2 (racemic) [Example 112, rac-N^6-(2-tert-Butyl-2H-tetrazol-5-yl)-N^2-(7-methoxy-indan-1-yl)-4H-benzo[d][1,3]oxazine-2,6-diamine] | 4.56 nM |
| COc1cccc2c1C(NC1=Nc3ccc(NC(=O)C4CC4)cc3CO1)CC2 (racemic) [Example 25, rac-Cyclopropanecarboxylic acid [2-(7-methoxy-indan-1-ylamino)-4H-benzo[d][1,3]oxazin-6-yl]-amide] | 1.06 nM |
| COCCNCC(=O)Nc1ccc2c(c1)COC(NC1COc3cc(F)ccc31)=N2 (racemic) [Example 42, rac-N-[2-(6-Fluoro-2,3-dihydro-benzofuran-3-ylamino)-4H-benzo[d][1,3]oxazin-6-yl]-2-(2-methoxy-ethylamino)-acetamide] | 56.4 nM |

| SMILES | Ki |
| --- | --- |
| O=S(=O)(Nc1ccc2c(c1)COC(NCCOc1ccccc1)=N2)c1ccccc1 [Example 109, N-[2-(2-Phenoxy-ethylamino)-4H-benzo[d][1,3]oxazin-6-yl]-benzenesulfonamide] | 32.3 nM |
| O=C(Nc1ccc2c(c1)COC(NC1CCCCCCC1)=N2)C1CC1 [Example 155, Cyclopropanecarboxylic acid (2-cyclooctylamino-4H-benzo[d][1,3]oxazin-6-yl)-amide] | 1.3 nM |
| O=S(=O)(Nc1ccc2c(c1)COC(Nc1cccc(C3CC3)c1)=N2)C1CC1 [Example 149, Cyclopropanesulfonic acid [2-(3-cyclopropyl-phenylamino)-4H-benzo[d][1,3]oxazin-6-yl]-amide] | 138 nM |
| Nc1ccc2c(c1)COC(NC1CCCCCCC1)=N2 [Example 153, N^2-Cyclooctyl-4H-benzo[d][1,3]oxazine-2,6-diamine] | 11.9 nM |
| COc1cccc2c1C(NC1=Nc3ccc(NS(=O)(=O)c4ccccc4)cc3CO1)CC2 (racemic) [Example 104, rac-N-[2-(7-Methoxy-indan-1-ylamino)-4H-benzo[d][1,3]oxazin-6-yl]-benzenesulfonamide] | 8.68 nM |
| COc1cccc2c1C(NC1=Nc3ccc(NC(=O)N(C)C4CCN(C(C)C)CC4)cc3CO1)CO2 (racemic) [Example 15, rac-1-(1-Isopropyl-piperidin-4-yl)-3-[2-(4-methoxy-2,3-dihydro-benzofuran-3-ylamino)-4H-benzo[d][1,3]oxazin-6-yl]-1-methyl-urea] | 6.08 nM |
| CS(=O)(=O)Nc1ccc2c(c1)COC(N[C@@H]1CCc3ccccc31)=N2 [Example 78, N-[2-((R)-Indan-1-ylamino)-4H-benzo[d][1,3]oxazin-6-yl]-methanesulfonamide] | 4.44 nM |
| Cc1ccc(CNC2=Nc3ccc(N)cc3CO2)o1 [Example 77, N^2-(5-Methyl-furan-2-ylmethyl)-4H-benzo[d][1,3]oxazine-2,6-diamine] | 13.5 nM |
| O=C(CN1CCOCC1)Nc1ccc2c(c1)COC(NC1COc3cc(F)ccc31)=N2 (racemic) [Example 45, rac-N-[2-(6-Fluoro-2,3-dihydro-benzofuran-3-ylamino)-4H-benzo[d][1,3]oxazin-6-yl]-2-morpholin-4-yl-acetamide] | 40.7 nM |
| COc1cccc2c1C(NC1=Nc3ccc(NC(=O)NC4CCN(C(C)C)CC4)cc3CO1)CO2 (racemic) [Example 14, rac-1-(1-Isopropyl-piperidin-4-yl)-3-[2-(4-methoxy-2,3-dihydro-benzofuran-3-ylamino)-4H-benzo[d][1,3]oxazin-6-yl]-urea] | 4.37 nM |
| COc1cccc2c1C(NC1=Nc3ccc(C#N)cc3CO1)CO2 (racemic) [Example 141, rac-2-(4-Methoxy-2,3-dihydro-benzofuran-3-ylamino)-4H-benzo[d][1,3]oxazine-6-carbonitrile] | 160 nM |
| FC(F)(F)c1cccc(Nc2ccc3c(c2)COC(N[C@@H]2CCc4ccccc42)=N3)n1 [Example 35, N^2-(R)-Indan-1-yl-N^6-(6-trifluoromethyl-pyridin-2-yl)-4H-benzo[d][1,3]oxazine-2,6-diamine] | 6.16 nM |
| CC(=O)Nc1ccc2c(c1)COC(N[C@@H]1CCc3ccccc31)=N2 [Example 48, N-[2-((R)-Indan-1-ylamino)-4H-benzo[d][1,3]oxazin-6-yl]-acetamide] | 3.63 nM |
| COc1cccc2c1C(NC1=Nc3ccc(NS(=O)(=O)C4CC4)cc3CO1)CC2 (racemic) [Example 103, rac-Cyclopropanesulfonic acid [2-(7-methoxy-indan-1-ylamino)-4H-benzo[d][1,3]oxazin-6-yl]-amide] | 2.82 nM |
| COc1cccc2c1C(NC1=Nc3ccc(C#N)cc3CO1)CC2 (racemic) [Example 142, rac-2-(7-Methoxy-indan-1-ylamino)-4H-benzo[d][1,3]oxazine-6-carbonitrile] | 27 nM |
| Nc1ccc2c(c1)COC(NCCOc1ccccc1)=N2 [Example 87, N^2-(2-Phenoxy-ethyl)-4H-benzo[d][1,3]oxazine-2,6-diamine] | 3.6 nM |
| COc1cccc2c1C(NC1=Nc3ccc(NC(C)=O)cc3CO1)CC2 (racemic) [Example 52, rac-N-[2-(7-Methoxy-indan-1-ylamino)-4H-benzo[d][1,3]oxazin-6-yl]-acetamide] | 4.98 nM |
| CC(C)NC(=O)Nc1ccc2c(c1)COC(Nc1cccc3c1OC(C)(C)C3)=N2 [Example 139, 1-[2-(2,2-Dimethyl-2,3-dihydro-benzofuran-7-ylamino)-4H-benzo[d][1,3]oxazin-6-yl]-isopropyl-urea] | 241 nM |
